The results in this text go back to ChEMBL document CHEMBL3886818, “Pyrazole carboxamides as Janus kinase inhibitors” (2016).

Assay [1] concerns the target Tyrosine-protein kinase JAK2 (Homo sapiens, UniProt O60674).
The target in assay [2] is Tyrosine-protein kinase JAK1 (Homo sapiens, UniProt P23458). The assay can be described thus: Subsequent reagent additions employed an Agilent Bravo.
Tyrosine-protein kinase JAK1, sequence (P23458 whole entry): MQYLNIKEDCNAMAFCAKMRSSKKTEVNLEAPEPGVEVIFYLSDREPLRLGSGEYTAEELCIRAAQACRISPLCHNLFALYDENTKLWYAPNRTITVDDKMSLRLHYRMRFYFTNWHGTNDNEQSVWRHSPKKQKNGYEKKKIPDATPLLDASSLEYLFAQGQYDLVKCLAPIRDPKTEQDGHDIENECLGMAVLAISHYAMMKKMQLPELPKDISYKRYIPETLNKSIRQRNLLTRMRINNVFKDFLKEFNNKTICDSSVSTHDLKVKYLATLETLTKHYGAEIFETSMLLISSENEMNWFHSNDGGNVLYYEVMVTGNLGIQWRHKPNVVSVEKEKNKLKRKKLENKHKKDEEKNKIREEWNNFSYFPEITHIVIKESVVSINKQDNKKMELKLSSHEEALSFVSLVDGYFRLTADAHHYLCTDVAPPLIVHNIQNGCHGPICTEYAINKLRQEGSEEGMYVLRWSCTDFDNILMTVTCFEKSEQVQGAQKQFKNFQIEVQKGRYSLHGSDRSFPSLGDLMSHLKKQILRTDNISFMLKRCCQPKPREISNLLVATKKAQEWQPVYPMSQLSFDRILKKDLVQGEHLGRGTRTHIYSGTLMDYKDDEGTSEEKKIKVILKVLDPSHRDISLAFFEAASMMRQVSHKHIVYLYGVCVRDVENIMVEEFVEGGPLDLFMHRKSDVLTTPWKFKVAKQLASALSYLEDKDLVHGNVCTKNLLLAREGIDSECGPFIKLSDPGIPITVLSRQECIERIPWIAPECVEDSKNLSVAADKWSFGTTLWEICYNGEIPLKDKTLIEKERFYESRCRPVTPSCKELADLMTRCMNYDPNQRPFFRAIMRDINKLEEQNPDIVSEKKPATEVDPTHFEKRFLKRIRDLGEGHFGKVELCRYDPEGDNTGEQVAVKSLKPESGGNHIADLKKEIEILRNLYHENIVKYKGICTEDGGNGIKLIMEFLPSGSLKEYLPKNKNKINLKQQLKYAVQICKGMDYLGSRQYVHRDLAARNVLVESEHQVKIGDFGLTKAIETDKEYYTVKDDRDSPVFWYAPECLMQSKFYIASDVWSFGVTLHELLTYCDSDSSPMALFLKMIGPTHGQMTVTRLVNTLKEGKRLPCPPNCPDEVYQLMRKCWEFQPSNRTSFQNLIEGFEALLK

Tyrosine-protein kinase JAK2, sequence (O60674 whole entry): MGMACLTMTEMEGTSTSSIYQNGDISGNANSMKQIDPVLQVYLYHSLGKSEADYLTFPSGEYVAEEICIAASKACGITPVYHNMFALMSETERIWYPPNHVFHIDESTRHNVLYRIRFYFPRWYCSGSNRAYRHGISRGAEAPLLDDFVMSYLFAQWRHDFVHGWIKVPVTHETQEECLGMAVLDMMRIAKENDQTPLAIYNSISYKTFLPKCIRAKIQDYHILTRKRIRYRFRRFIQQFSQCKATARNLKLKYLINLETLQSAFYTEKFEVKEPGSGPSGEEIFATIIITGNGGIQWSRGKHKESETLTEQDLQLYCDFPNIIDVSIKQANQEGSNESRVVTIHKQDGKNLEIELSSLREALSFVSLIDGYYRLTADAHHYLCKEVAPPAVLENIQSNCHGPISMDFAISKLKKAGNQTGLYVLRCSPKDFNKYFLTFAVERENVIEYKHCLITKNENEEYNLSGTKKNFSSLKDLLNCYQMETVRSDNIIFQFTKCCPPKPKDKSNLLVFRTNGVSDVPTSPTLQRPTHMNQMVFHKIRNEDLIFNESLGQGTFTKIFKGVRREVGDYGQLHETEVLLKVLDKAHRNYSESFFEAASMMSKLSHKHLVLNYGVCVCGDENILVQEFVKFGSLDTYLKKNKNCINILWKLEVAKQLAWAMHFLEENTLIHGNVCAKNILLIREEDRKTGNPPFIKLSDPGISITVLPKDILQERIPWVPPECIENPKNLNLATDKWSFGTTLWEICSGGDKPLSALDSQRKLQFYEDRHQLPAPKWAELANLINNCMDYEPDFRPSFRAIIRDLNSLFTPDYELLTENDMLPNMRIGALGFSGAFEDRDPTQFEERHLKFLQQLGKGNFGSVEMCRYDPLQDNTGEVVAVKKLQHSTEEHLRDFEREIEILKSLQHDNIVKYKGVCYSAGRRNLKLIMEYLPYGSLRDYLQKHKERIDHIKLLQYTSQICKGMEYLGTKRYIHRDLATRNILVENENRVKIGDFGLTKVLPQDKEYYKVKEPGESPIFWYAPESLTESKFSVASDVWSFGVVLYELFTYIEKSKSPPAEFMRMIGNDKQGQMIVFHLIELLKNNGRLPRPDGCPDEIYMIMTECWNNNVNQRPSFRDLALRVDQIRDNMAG

Broadly, the IC50 is the concentration that gives 50% inhibition. A low value points to inhibition by little substance. As to `N#C[C@H]1CCOC[C@@H]1n1cc(C(N)=O)c(Nc2ccc(OC(F)(F)F)cc2)n1` (single isomer, unassigned), the IC50 in assay [1] is 1000 pM; in assay [2], 200 pM.
